# Experimental data published in article PMC5667506, “Potent and selective inhibition of SH3 domains with dirhodium metalloinhibitors” (Chemical Science, 2015).
# Target: T1, Hck SH3 domain (Homo sapiens, UniProt P08631)
# T1 construct: The hck SH3 domain was amplified by PCR using Phusion DNA polymerase; GST (N, cleaved yes); made in house; host or cells: E. coli BL21 (DE3)
# Test: ITC binding to Hck SH3 domain (two-sets-of-sites fit)
# Conditions: high affinity specific site
# Protocol: All chemical reagents were purchased from Sigma-Aldrich and were used without further purification.
# Peptide synthesis. All peptides were synthesized manually or with an AAPPTEC APEX 396 Automated Multipeptide Synthesizer using standard solid-phase Fmoc protocols.1,2 Peptides were prepared as C-terminal amides using Rink amide MBHA resin (AAPPTEC) and were acetylated at the N-terminus prior to cleavage from the resin. Peptides and metallopeptides were purified by reverse-phase HPLC.
# HPLC separation. Reverse-phase HPLC was performed on a Shimadzu CBM-20A instrument with Phenomenex Jupiter 4μ Proteo 90A (250 × 15 mm preparative) and Phenomenex Jupiter 4μ Proteo 90A (250 × 4.6 mm analytical) columns. The columns were eluted with a gradient of acetonitrile in water (10-90%) (flow rates of 8 mL/min and 1 mL/min for preparative and analytical columns, respectively). Trifluoroacetic acid (0.1%) was added to all eluents. […]
# ITC analysis. ITC experiments were carried out on a VP-ITC instrument (MicroCal) at 25 °C. Titrations of 275 μM peptide into 18 μM SH3 domain proteins were used for all titrations, except for the titration of S2ERh into Lyn SH3 domain, where the lower concentrations of 69 µM S2ERh peptide and 4 µM Lyn SH3 were used to attain a c-value for the titration within the accepted limts for ITC experiments ([…]).3
# Heats of dilutions were measured independently for each experiment by titrating 275 μM peptide into buffer (20 mM phosphate buffer, pH 7, 150 mM NaCl, 1 mM EDTA). All experimental data were fitted using a one set of sites binding model in Origin software (MicroCal) except for the data with Hck SH3 domain. With Hck only, the non-peptide specific binding of dirhodium tetraacetate to Hck SH3 domain could not be treated as negligible, despite the very weak interaction (88 µM), due to the larger enthalpy contribution observed for non-specific binding to this SH3 domain, so the titrations of peptide into Hck were fitted using a 2 set of sites binding model where the stoichiometry for the second set of sites was fixed at 2.0. […]
# Mass spectrometry. ESI-MS was performed on a Bruker Daltonics micrOTOF instrument.
# Known compounds and proteins. Several metallopeptides (S2ERh, L3ERh, R5ERh, and 13DRh) were reported previously and were prepared by known protocols;4 alkyne-diazo 3,5 3-azido-7-hydroxycoumarin6 were synthesized following reported procedures; fyn, yes, lck, and src SH3 protein domains were prepared following published procedures.5 Abl, hck, and lyn SH3 domain plasmids were adapted from the previously reported genes;7 the gene templates were obtained from Addgene, ID […]
# Table S1. Table of the thermodynamic parameters for binding of metallopeptides to SH3 domains, determined by isothermal […]
# Protein Peptide Stoichiometry Kd ΔH -TΔS ΔG
# (nM) (kcal mol-1) (kcal mol-1) (kcal mol-1)
# * The binding isotherms for metallopeptide interactions with Hck were fitted using a two -sets-of-sites model with the stoichiometry for the second set of sites fixed to 2.0. The second set of binding sites was used to account for the weak, but not negligable, binding of the peptide to another surface of Hck SH3 domain, presumably through non-specific interactions of the dirhodium tetraacetate group. The thermodynamics for the high affinity specific binding site interaction are provided in this
# T1 sequence (P08631 77-139): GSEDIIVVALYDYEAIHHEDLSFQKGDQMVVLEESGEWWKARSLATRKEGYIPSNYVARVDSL
Kd (25 °C) [nM],-TΔS (25 °C) [kcal/mol],ΔG (25 °C) [kcal/mol],ΔH (25 °C) [kcal/mol],Stoichiometry,Substance
26,–,–,–,–,"AcVELARRPLPPLPN-NH2 (Ac-VELARRPLPPLPN-NH2; also: Glu2 side-chain carboxylate bound to Rh2(OAc)3) [S2E^Rh, rhodium(II) metallopeptide made from S2E peptide (Ac…-NH2) and Rh2(tfa)(OAc)3]"
–,6.9,-10.4,-17.2,0.95,AcVELARRPLPPLPN-NH2 [S2E^Rh]
